Assay results from patent US20160146815A1, “METHOD FOR SCREEING CANCER METASTASIS INHIBITOR USING CULTURE OF CELLS OR SPHEROIDICALLY AGGREGATED CELLS IN WHICH LYSYL-TRNA SYNTHETASE IS REGULATED TO BE EXPRESSED OR UNEXPRESSED” (Medicinal Bioconvergence Research Center, priority 2013, published 2016).
Entries after “also recorded” stand apart in the source; their conditions may differ.

Legend:
[1] = test system: HCT116 spheroid cells; assay: Immunostaining of p-ERKs and paxillin in spheroids in three-dimensional collagen gel (confocal microscope); format: cell-based, human; conditions: U0126 (50 mM) or YH16899 (50 mM), a day
Protocol: Particularly, collagen type I was distributed in PDMS, which was treated with nothing for a day (FIG. 6A and FIG. 6B) or treated with U0126 (50 mM) or YH16899 (50 mM) (FIG. 6C and FIG. 6D). Collagen gel containing the cultured cells was fixed in 4% formaldehyde for 30 minutes, followed by the treatment with 30 mM glycine for 30 minutes. Permeabilization was induced by using 0.5% triton X-100 for 30 minutes, followed by blocking with 3% BSA solution for 2 hours. The unlabeled p-ERKs (cell signaling) and paxillin (BD bioscience) antibodies were treated thereto at 4° C. at least 16˜18 hours, followed by the treatment with the secondary antibody for at least 4 hours at room temperature. At last, DAPI (4′,6-diamidino-2-phenylindole) solution was treated thereto in order to stain nuclei. The stained cells were observed under confocal microscope.

[2] = test system: HCT116 spheroidically aggregated cells; assay: Dissemination of cells from spheroidically aggregated cells in three-dimensional collagen gel (time-lapse microscope); format: cell-based, human; conditions: HCT116 parental cells, U0126 50 μM, three-dimensional collagen gel, real-time live imaging
Protocol: Particularly, 2.5 mg/Ml of collagen containing cells was loaded in the magnetic 4-well chamber (Live Cell Instrument, Korea) for the culture system of time-lapse microscope, and the collagen was hardened in a 37° C. incubator for 30 minutes. When the collagen was fully solidified, PRMI-1640 supplemented with 10% FBS was added thereto. The magnetic chamber containing three-dimensional collagen gel and its corresponding adaptor were placed on the time-lapse microscope, followed by setting the multi-position. […] 5% CO2 incubator. Culture medium was added thereto every 6 hours in order for the collagen not to be dried. At this time, it is important to maintain the focus not to be changed. […]
As confirmed in the result of Example 14, when the HCT116 parental cells were treated with TGFβ1, the dissemination of cells from the spheroidically aggregated cells and migration thereof were observed. When the KRS knock-out cell line was treated with TGFβ1, the dissemination of cells was not observed. […] When the extracellular signal-regulated kinase (ERKs) inhibitor U0126 was treated to the HCT116 parental cells, it was presumed to be negative effect on the dissemination and migration of cells. To verify above, 50 μM of U0126, the ERKs inhibitor, was treated to the cell line, followed by observation of cell dissemination and migration by real-time live imaging of the spheroidically aggregated cells.

[3] = test system: HCT116 parental cells; conditions: U0126 50 or 100 μM, 24 hours; vs control not treated
Protocol: Particularly, the HCT116 parental cells cultured in a three-dimensional collagen gel environment were either not treated with U0126 or treated with U0126, the ERKs inhibitor, at the concentration of 50 or 100 μM, followed by culture for 24 hours.

[4] = test system: colorectal cancer cell line SW620; assay: Dissemination of cells from SW620 spheroids in three-dimensional collagen gel (time-lapse imaging); format: cell-based, human; conditions: SW620 parental cells treated with U0126 or YH16899
Text: Various colorectal cancer cell lines (SW620, HCT15, SNU977, KM12SM, and SNU-05) were stably transfected with shKRS to suppress KRS expression (clones #2 and #5). Then, the dissemination was observed under time-lapse microscope (FIG. 17A) or the signaling activity was investigated after the treatment of YH16899 (FIG. 17B).
Particularly, the colorectal cancer cell lines SW620, HCT15, SNU977, KM12SM, and SNU-05 (Korean Cell Line Bank, Cancer Research Institute, Seoul National University) were distributed in a three-dimensional collagen gel environment as spheroids, followed by time-lapse imaging 6 hours later or followed by normal culture in a two-dimensional environment supplemented with 10% serum for 2 days. Then, lysis buffer (50 mM Tris-HCl, pH7.4, 1% NP-40, 0.25% sodium deoxycholate, 150 mM NaCl, 1 mM EDTA) was added thereto, followed by lysis to obtain cell lysate. The protein in the obtained cell lysate was quantified, followed by Western blotting with the labeled factors.

[5] = test system: HCT116 cells; assay: CK14 immunostaining of spheroids in three-dimensional collagen gel; format: cell-based, human; conditions: U0126 (50 mM) or YH16899 (50 mM), a day, KRS expressing cells
Text: In a three-dimensional collagen gel environment, the dissemination of cells was KRS expression-dependent, and the expressions of epithelial markers involved in cell-cell contact were reduced in the KRS knock-out cell lines. However in the KRS knock-out cell lines, the cell scattering was not observed in a two-dimensional culture environment and the dissemination was not observed in a three-dimensional collagen gel environment. So, in order to confirm whether or not the dissemination of cells from the spheroidically aggregated cells of KRS knock-out cell line in a three-dimensional collagen gel environment was attributed to the expression of epithelial marker, the cell line was cultured in a three-dimensional collagen gel environment for 24 hours. When the dissemination was observed, CK14 staining was performed and the cells were observed under confocal microscope.
Particularly, the collagen gel containing cells were distributed in PDMS, which was treated with nothing for a day (FIG. 9A) or treated with U0126 (50 mM) or YH16899 (50 mM) (FIG. 9B). The collagen gel containing the cultured cells was fixed in 4% paraformaldehyde for 30 minutes, which was then treated with 30 mM glycine for 30 minutes. Then, permeabilization was induced by using 0.5% triton X-100 for 30 minutes, followed by blocking with 3% BSA solution for 2 hours. […]

[6] = test system: HCT116 parental cells; assay: Western blotting of signaling factors in spheroidically aggregated cells in three-dimensional collagen gel; format: cell-based, human; conditions: for phosphorylation of FAK / expression of E-cadherin / expression of paxillin / expression of β-catenin / phosphorylation of ERKs / phosphorylation of paxillin: 50 and 100 μM, three-dimensional collagen gel, Western blotting; for phosphorylation of FAK: a day (24 hours); for expression of E-cadherin / expression of paxillin / expression of β-catenin / phosphorylation of ERKs / phosphorylation of paxillin: a day
Protocol: Whole cell extract was collected, followed by Western blotting by the same manner as described in Example <7-2>. At this time, the primary antibodies of pY397FAK, FAK, p-ERKs, ERKs, pY118paxillin, paxillin, E-cadherin, β-catenin, KRS, α-tubulin, pAkt1/2/3, and caspase 3 were used.
SDS, Na3O4V, and protease inhibitor cocktails (GenDepot) were added to lysis buffer, followed by reaction at 4° C. for at least 1 hour. Centrifugation was performed at 4° C., at 13000 rpm, for 30 minutes. The supernatant was transferred into a new microcentrifuge tube. 4×SDS-PAGE sample buffer was added thereto, followed by boiling at 100° C. for 5 minutes. The extract was quantified by Western blotting using α-tubulin antibody (Sigma). Other protein expressions and phosphorylations were also measured by Western blotting.

For `N#CC(=C(/N)Sc1ccccc1N)/C(C#N)=C(\N)Sc1ccccc1N` [U0126], the “ERKs phosphorylation level (p-ERKs immunostaining)” value [1] was “inhibited significantly; also recorded: very low”, the “paxillin immunostaining level (paxillin expression)” value [1] was “inhibited significantly; also recorded: significantly reduced” and the “dissemination and migration of cells from the spheroid” value (shortened to “dissemination and migration of cells”) [2] was “suppression”. For the same compound, the “dissemination and migration of cells” value ([2]; listed as ERKs inhibitor) was “did not cause cell migration and dissemination; also recorded: not induced”, the “dissemination and migration of cells” value ([2]; listed as ERKs inhibitors) was “inhibited” and the “dissemination and migration of cells” value ([2]; listed as U1026) was “inhibited”. For the same compound, the “expression level of E-cadherin mRNA” value [3] was “significantly reduced”, the “dissemination of cells from the three-dimensional spheroid cells” value [4] was “not observed” and the CK14 expression [5] was “significantly suppressed”. The CK14 expression ([5]; listed as U1026) was “low and very low”, the “phosphorylation of FAK” value [6] was “suppressed” and the “phosphorylation of FAK” value ([6]; listed as ERKs inhibitor) was “significantly reduced”. For the same compound, the “expression of E-cadherin” value [6] was “reduced”, the expression of paxillin [6] was “reduced” and the “expression of β-catenin” value [6] was “reduced”. The “phosphorylation of ERKs” value [6] was “suppressed”, the phosphorylation of paxillin [6] was “reduced; also recorded: suppressed” and the “expression of E-cadherin” value ([6]; listed as ERKs inhibitor) was “significantly reduced”. The expression of paxillin ([6]; listed as ERKs inhibitor) was “significantly reduced”, the phosphorylation of paxillin ([6]; listed as ERKs inhibitor) was “significantly reduced” and the “expression of E-cadherin” value ([6]; listed as U1026) was “decreased”. The expression of paxillin ([6]; listed as U1026) was “inhibited”, the “expression of β-catenin” value ([6]; listed as U1026) was “decreased” and the “phosphorylation of ERKs” value ([6]; listed as U1026) was “inhibited”. For the same compound, the phosphorylation of paxillin ([6]; listed as U1026) was “inhibited” and the “expression of the epithelial marker” value ([6]; HCT116 cell line in three-dimensional collagen gel, FIG. 18 legend) was “increased”.
